Where a SMILES comes first, the peptide text is derived from it. The star is where a group is joined. Cbz = O=C(OCc1ccccc1)*; Bn = c1ccc(C*)cc1
System: LRF (luteinizing hormone releasing factor) induced luteinizing hormone (LH) release
Assay: In vitro LRF antagonist test in rat anterior pituitary cell cultures
Assay type: cell-based
Text: Nonapeptides of this invention were screened for LRF antagonist activity in vitro using rat anterior pituitary cell cultures as described by Vale et. al. [Endocrinology, 91, 562 (1972)]. The inhibition of LRF (luteinizing hormone releasing factor) induced luteinizing hormone (LH) release into the culture medium is the endpoint in this in vitro bioassay.

Molecule	% LH Release Inhibition (compound molar conc. 1×10^-7) [%]	LH Value (compound molar conc. 1×10^-7, LH released into culture medium) [ng/mL]	% LH Release Inhibition (compound molar conc. 1×10^-8) [%]	LH Value (compound molar conc. 1×10^-8, LH released into culture medium) [ng/mL]	LH Value (LRF alone, molar conc. 5×10^-10) [ng/mL]
NC(=O)CC[C@H](NC(=O)OCc1ccccc1)C(=O)N[C@@H](Cc1c[nH]c2ccccc12)C(=O)N[C@@H](CO)C(=O)N[C@@H](Cc1ccc(O)cc1)C(=O)N[C@@H](Cc1c[nH]c2ccccc12)C(=O)N1CCC[C@H]1C(=O)N1CCC[C@H]1C(=O)N[C@@H](Cc1ccc(OCc2ccccc2)cc1)C(=O)N[C@@H](COCc1ccccc1)C(N)=O [N^α -benzyloxycarbonyl-L-glutaminyl-L-tryptophyl-L-seryl-L-tyrosyl-L-tryptophyl-L-prolyl-L-prolyl-O-benzyl-L-tyrosyl-O-benzyl-L-serinamide] (Cbz-QWSYWPPY(Bn)S(Bn)-NH2)	29	52.33	37	47.20	
LRF Control: luteinizing hormone releasing factor, also referred to as luteinizing hormone releasing hormone (LH-RH); stimulates secretion of luteinizing hormone (QHWSYGLRPG; Gonadoliberin-1; UniProt P01148 24-33, looked up) [reference compound]					69.51

From patent publication US4101538A, “Nonapeptides and methods for their production” (Warner-Lambert, priority 1977, dated 1978)
